Where a SMILES comes first, the peptide text is derived from it.
Key:
[1] = molecular target: Nicotinic acetylcholine receptor alpha9/alpha10 (Rattus norvegicus, UniProt P43144+Q9JLB5); assay: Antagonist activity at rat alpha9alpha10 nACh receptor expressed in Xenopus oocyte assessed as inhibition of acetylcholine-induced response at -70 mV holding potential by voltage-clamp based electrophysiological assay; type: cell-based
[2] = molecular target: Neuronal acetylcholine receptor subunit alpha-7 (Rattus norvegicus, UniProt Q05941); assay: Antagonist activity at rat alpha7 nACh receptor expressed in Xenopus oocyte assessed as inhibition of acetylcholine-induced response at -70 mV holding potential by voltage-clamp based electrophysiological assay; type: cell-based
Chain of Neuronal acetylcholine receptor subunit alpha-7 (Q05941 whole entry): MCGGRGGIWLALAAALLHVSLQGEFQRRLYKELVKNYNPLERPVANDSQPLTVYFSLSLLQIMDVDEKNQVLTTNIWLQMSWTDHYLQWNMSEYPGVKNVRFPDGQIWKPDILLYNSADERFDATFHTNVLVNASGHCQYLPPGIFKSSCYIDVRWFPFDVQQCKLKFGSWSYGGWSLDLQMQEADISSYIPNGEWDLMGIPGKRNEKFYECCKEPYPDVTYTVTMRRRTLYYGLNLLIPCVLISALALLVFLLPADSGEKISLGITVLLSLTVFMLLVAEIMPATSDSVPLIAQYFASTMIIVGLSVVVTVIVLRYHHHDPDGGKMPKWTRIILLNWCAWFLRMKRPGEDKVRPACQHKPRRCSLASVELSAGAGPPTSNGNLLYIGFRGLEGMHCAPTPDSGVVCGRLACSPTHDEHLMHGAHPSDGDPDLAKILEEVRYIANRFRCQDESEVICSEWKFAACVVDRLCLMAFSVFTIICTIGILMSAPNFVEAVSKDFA

Chain of Nicotinic acetylcholine receptor alpha9/alpha10 (P43144 whole entry): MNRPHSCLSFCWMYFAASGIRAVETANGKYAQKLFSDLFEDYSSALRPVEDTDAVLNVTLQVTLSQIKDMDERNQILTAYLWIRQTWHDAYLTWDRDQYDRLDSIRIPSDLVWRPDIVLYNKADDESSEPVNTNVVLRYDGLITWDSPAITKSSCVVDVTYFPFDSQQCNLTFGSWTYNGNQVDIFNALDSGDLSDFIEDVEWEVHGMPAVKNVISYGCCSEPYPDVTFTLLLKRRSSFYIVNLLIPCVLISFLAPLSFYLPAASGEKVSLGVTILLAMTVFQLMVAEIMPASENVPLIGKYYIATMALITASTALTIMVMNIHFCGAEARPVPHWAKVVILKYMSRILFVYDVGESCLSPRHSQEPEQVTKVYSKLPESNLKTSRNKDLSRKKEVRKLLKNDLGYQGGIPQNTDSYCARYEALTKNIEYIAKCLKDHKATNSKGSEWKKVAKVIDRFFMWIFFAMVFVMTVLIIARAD
Chain of Nicotinic acetylcholine receptor alpha9/alpha10 (Q9JLB5 whole entry): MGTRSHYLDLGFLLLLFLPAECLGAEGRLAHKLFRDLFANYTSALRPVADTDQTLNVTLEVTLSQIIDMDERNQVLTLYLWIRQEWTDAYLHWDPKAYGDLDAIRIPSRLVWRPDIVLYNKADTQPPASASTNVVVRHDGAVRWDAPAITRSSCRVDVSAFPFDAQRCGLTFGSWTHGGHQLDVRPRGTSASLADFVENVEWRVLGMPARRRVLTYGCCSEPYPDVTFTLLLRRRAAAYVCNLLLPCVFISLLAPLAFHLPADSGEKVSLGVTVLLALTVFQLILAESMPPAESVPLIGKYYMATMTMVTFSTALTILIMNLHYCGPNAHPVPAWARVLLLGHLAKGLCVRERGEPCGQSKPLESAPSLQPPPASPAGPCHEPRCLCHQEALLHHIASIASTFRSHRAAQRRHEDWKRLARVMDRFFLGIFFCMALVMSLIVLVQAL

SMILES	IC50 [1]	IC50 [2]
CC[C@H](C)[C@@H]1NC(=O)[C@H](CCCNC(=N)N)NC(=O)[C@H](CCCNC(=N)N)NC(=O)[C@@H](NC(=O)[C@H](Cc2ccc(O)cc2)NC(=O)[C@H](CCCNC(=N)N)NC(=O)[C@H](CCCNC(=N)N)NC(=O)[C@H](CCCNC(=N)N)NC(=O)[C@H](CCCNC(=N)N)NC(=O)[C@H](CC(=O)O)NC(=O)[C@H](C)NC(=O)[C@@H]2CCCN2C(=O)[C@H](CO)NC(=O)[C@H](CCCNC(=N)N)NC(=O)[C@@H]2CSSC[C@H](NC(=O)[C@@H](N)[C@@H](C)O)C(=O)N[C@@H](CCCNC(=N)N)C(=O)N[C@@H](CO)C(=O)N[C@@H](CO)C(=O)NCC(=O)N[C@@H](CCCNC(=N)N)C(=O)N[C@@H](Cc3ccc(O)cc3)C(=O)N2)CSSC[C@@H](C(=O)N[C@H](C(=O)O)C(C)C)NC(=O)[C@H](C)NC(=O)[C@H](CC(=O)O)NC(=O)[C@H]([C@@H](C)O)NC1=O (HELM PEPTIDE1{T.C.R.S.S.G.R.Y.C.R.S.P.A.D.R.R.R.R.Y.C.R.R.I.T.D.A.C.V}$PEPTIDE1,PEPTIDE1,2:R3-9:R3|PEPTIDE1,PEPTIDE1,20:R3-27:R3$$$V2.0)	11 nM	3030 nM
CC[C@H](C)[C@@H]1NC(=O)[C@H](CCCNC(=N)N)NC(=O)[C@H](CCCNC(=N)N)NC(=O)[C@@H]2CSSC[C@H](NC(=O)[C@H](Cc3ccc(O)cc3)NC(=O)[C@H](CCCNC(=N)N)NC(=O)CNC(=O)[C@H](CO)NC(=O)[C@H](CO)NC(=O)[C@H](CCCNC(=N)N)NC(=O)[C@@H](NC(=O)[C@@H](N)[C@@H](C)O)CSSC[C@@H](C(=O)N[C@H](C(=O)O)C(C)C)NC(=O)[C@H](C)NC(=O)[C@H](CC(=O)O)NC(=O)[C@H]([C@@H](C)O)NC1=O)C(=O)N[C@@H](CCCNC(=N)N)C(=O)N[C@@H](C)C(=O)N1CCC[C@H]1C(=O)N[C@@H](Cc1ccc(O)cc1)C(=O)N[C@@H](CC(=O)O)C(=O)N[C@@H](CCCNC(=N)N)C(=O)N[C@@H](CCCNC(=N)N)C(=O)N[C@@H](CCCNC(=N)N)C(=O)N[C@@H](CCCNC(=N)N)C(=O)N[C@@H](Cc1ccc(O)cc1)C(=O)N2 (HELM PEPTIDE1{T.C.R.S.S.G.R.Y.C.R.A.P.Y.D.R.R.R.R.Y.C.R.R.I.T.D.A.C.V}$PEPTIDE1,PEPTIDE1,2:R3-27:R3|PEPTIDE1,PEPTIDE1,9:R3-20:R3$$$V2.0)	10 nM	5600 nM
CC[C@H](C)[C@@H]1NC(=O)[C@H](CCCNC(=N)N)NC(=O)[C@H](CCCNC(=N)N)NC(=O)[C@@H](NC(=O)[C@H](Cc2ccc(O)cc2)NC(=O)[C@H](CCCNC(=N)N)NC(=O)[C@H](CCCNC(=N)N)NC(=O)[C@H](CCCNC(=N)N)NC(=O)[C@H](CCCNC(=N)N)NC(=O)[C@H](C)NC(=O)[C@H](Cc2ccc(O)cc2)NC(=O)[C@@H]2CCCN2C(=O)[C@H](CO)NC(=O)[C@H](CCCNC(=N)N)NC(=O)[C@@H]2CSSC[C@H](NC(=O)[C@@H](N)[C@@H](C)O)C(=O)N[C@@H](CCCNC(=N)N)C(=O)N[C@@H](CO)C(=O)N[C@@H](CO)C(=O)NCC(=O)N[C@@H](CCCNC(=N)N)C(=O)N[C@@H](Cc3ccc(O)cc3)C(=O)N2)CSSC[C@@H](C(=O)N[C@H](C(=O)O)C(C)C)NC(=O)[C@H](C)NC(=O)[C@H](CC(=O)O)NC(=O)[C@H]([C@@H](C)O)NC1=O (HELM PEPTIDE1{T.C.R.S.S.G.R.Y.C.R.S.P.Y.A.R.R.R.R.Y.C.R.R.I.T.D.A.C.V}$PEPTIDE1,PEPTIDE1,2:R3-9:R3|PEPTIDE1,PEPTIDE1,20:R3-27:R3$$$V2.0)	15 nM	3080 nM
CC[C@H](C)[C@@H]1NC(=O)[C@H](CCCNC(=N)N)NC(=O)[C@H](CCCNC(=N)N)NC(=O)[C@@H](NC(=O)[C@H](Cc2ccc(O)cc2)NC(=O)[C@H](CCCNC(=N)N)NC(=O)[C@H](CCCNC(=N)N)NC(=O)[C@H](CCCNC(=N)N)NC(=O)[C@H](CCCNC(=N)N)NC(=O)[C@H](CC(=O)O)NC(=O)[C@H](Cc2ccc(O)cc2)NC(=O)[C@@H]2CCCN2C(=O)[C@H](CO)NC(=O)[C@H](CCCNC(=N)N)NC(=O)[C@@H]2CSSC[C@H](NC(=O)[C@@H](N)[C@@H](C)O)C(=O)N[C@@H](CCCNC(=N)N)C(=O)N[C@@H](CO)C(=O)N[C@@H](C)C(=O)NCC(=O)N[C@@H](CCCNC(=N)N)C(=O)N[C@@H](Cc3ccc(O)cc3)C(=O)N2)CSSC[C@@H](C(=O)N[C@H](C(=O)O)C(C)C)NC(=O)[C@H](C)NC(=O)[C@H](CC(=O)O)NC(=O)[C@H]([C@@H](C)O)NC1=O (HELM PEPTIDE1{T.C.R.S.A.G.R.Y.C.R.S.P.Y.D.R.R.R.R.Y.C.R.R.I.T.D.A.C.V}$PEPTIDE1,PEPTIDE1,2:R3-9:R3|PEPTIDE1,PEPTIDE1,20:R3-27:R3$$$V2.0)	27 nM	1450 nM
CC[C@H](C)[C@@H]1NC(=O)[C@H](CCCNC(=N)N)NC(=O)[C@H](CCCNC(=N)N)NC(=O)[C@@H](NC(=O)[C@H](Cc2ccc(O)cc2)NC(=O)[C@H](C)NC(=O)[C@H](CCCNC(=N)N)NC(=O)[C@H](CCCNC(=N)N)NC(=O)[C@H](CCCNC(=N)N)NC(=O)[C@H](CC(=O)O)NC(=O)[C@H](Cc2ccc(O)cc2)NC(=O)[C@@H]2CCCN2C(=O)[C@H](CO)NC(=O)[C@H](CCCNC(=N)N)NC(=O)[C@@H]2CSSC[C@H](NC(=O)[C@@H](N)[C@@H](C)O)C(=O)N[C@@H](CCCNC(=N)N)C(=O)N[C@@H](CO)C(=O)N[C@@H](CO)C(=O)NCC(=O)N[C@@H](CCCNC(=N)N)C(=O)N[C@@H](Cc3ccc(O)cc3)C(=O)N2)CSSC[C@@H](C(=O)N[C@H](C(=O)O)C(C)C)NC(=O)[C@H](C)NC(=O)[C@H](CC(=O)O)NC(=O)[C@H]([C@@H](C)O)NC1=O	54 nM	4520 nM
CC[C@H](C)[C@@H]1NC(=O)[C@H](CCCNC(=N)N)NC(=O)[C@H](CCCNC(=N)N)NC(=O)[C@@H]2CSSC[C@H](NC(=O)[C@H](Cc3ccc(O)cc3)NC(=O)[C@H](CCCNC(=N)N)NC(=O)CNC(=O)[C@H](CO)NC(=O)[C@H](CO)NC(=O)[C@H](CCCNC(=N)N)NC(=O)[C@@H](NC(=O)[C@@H](N)[C@@H](C)O)CSSC[C@@H](C(=O)N[C@H](C(=O)O)C(C)C)NC(=O)[C@H](C)NC(=O)[C@H](CC(=O)O)NC(=O)[C@H](C)NC1=O)C(=O)N[C@@H](CCCNC(=N)N)C(=O)N[C@@H](CO)C(=O)N1CCC[C@H]1C(=O)N[C@@H](Cc1ccc(O)cc1)C(=O)N[C@@H](CC(=O)O)C(=O)N[C@@H](CCCNC(=N)N)C(=O)N[C@@H](CCCNC(=N)N)C(=O)N[C@@H](CCCNC(=N)N)C(=O)N[C@@H](CCCNC(=N)N)C(=O)N[C@@H](Cc1ccc(O)cc1)C(=O)N2	36 nM	7130 nM
CC[C@H](C)[C@@H]1NC(=O)[C@H](CCCNC(=N)N)NC(=O)[C@H](CCCNC(=N)N)NC(=O)[C@@H](NC(=O)[C@H](Cc2ccc(O)cc2)NC(=O)[C@H](CCCNC(=N)N)NC(=O)[C@H](CCCNC(=N)N)NC(=O)[C@H](CCCNC(=N)N)NC(=O)[C@H](CCCNC(=N)N)NC(=O)[C@H](CC(=O)O)NC(=O)[C@H](Cc2ccc(O)cc2)NC(=O)[C@@H]2CCCN2C(=O)[C@H](CO)NC(=O)[C@H](CCCNC(=N)N)NC(=O)[C@@H]2CSSC[C@H](NC(=O)[C@@H](N)[C@@H](C)O)C(=O)N[C@@H](CCCNC(=N)N)C(=O)N[C@@H](CO)C(=O)N[C@@H](CO)C(=O)NCC(=O)N[C@@H](CCCNC(=N)N)C(=O)N[C@@H](Cc3ccc(O)cc3)C(=O)N2)CSSC[C@@H](C(=O)N[C@@H](C)C(=O)O)NC(=O)[C@H](C)NC(=O)[C@H](CC(=O)O)NC(=O)[C@H]([C@@H](C)O)NC1=O	15 nM	760 nM
CC[C@H](C)[C@@H]1NC(=O)[C@H](CCCNC(=N)N)NC(=O)[C@H](CCCNC(=N)N)NC(=O)[C@@H](NC(=O)[C@H](Cc2ccc(O)cc2)NC(=O)[C@H](CCCNC(=N)N)NC(=O)[C@H](CCCNC(=N)N)NC(=O)[C@H](CCCNC(=N)N)NC(=O)[C@H](CCCNC(=N)N)NC(=O)[C@H](CC(=O)O)NC(=O)[C@H](Cc2ccc(O)cc2)NC(=O)[C@@H]2CCCN2C(=O)[C@H](CO)NC(=O)[C@H](CCCNC(=N)N)NC(=O)[C@@H]2CSSC[C@H](NC(=O)[C@@H](N)[C@@H](C)O)C(=O)N[C@@H](CCCNC(=N)N)C(=O)N[C@@H](CO)C(=O)N[C@@H](CO)C(=O)NCC(=O)N[C@@H](CCCNC(=N)N)C(=O)N[C@@H](C)C(=O)N2)CSSC[C@@H](C(=O)N[C@H](C(=O)O)C(C)C)NC(=O)[C@H](C)NC(=O)[C@H](CC(=O)O)NC(=O)[C@H]([C@@H](C)O)NC1=O (HELM PEPTIDE1{T.C.R.S.S.G.R.A.C.R.S.P.Y.D.R.R.R.R.Y.C.R.R.I.T.D.A.C.V}$PEPTIDE1,PEPTIDE1,2:R3-9:R3|PEPTIDE1,PEPTIDE1,20:R3-27:R3$$$V2.0)	10 nM	1700 nM
CC[C@H](C)[C@@H]1NC(=O)[C@H](CCCNC(=N)N)NC(=O)[C@H](CCCNC(=N)N)NC(=O)[C@@H]2CSSC[C@H](NC(=O)[C@H](Cc3ccc(O)cc3)NC(=O)[C@H](CCCNC(=N)N)NC(=O)[C@H](C)NC(=O)[C@H](CO)NC(=O)[C@H](CO)NC(=O)[C@H](CCCNC(=N)N)NC(=O)[C@@H](NC(=O)[C@@H](N)[C@@H](C)O)CSSC[C@@H](C(=O)N[C@H](C(=O)O)C(C)C)NC(=O)[C@H](C)NC(=O)[C@H](CC(=O)O)NC(=O)[C@H]([C@@H](C)O)NC1=O)C(=O)N[C@@H](CCCNC(=N)N)C(=O)N[C@@H](CO)C(=O)N1CCC[C@H]1C(=O)N[C@@H](Cc1ccc(O)cc1)C(=O)N[C@@H](CC(=O)O)C(=O)N[C@@H](CCCNC(=N)N)C(=O)N[C@@H](CCCNC(=N)N)C(=O)N[C@@H](CCCNC(=N)N)C(=O)N[C@@H](CCCNC(=N)N)C(=O)N[C@@H](Cc1ccc(O)cc1)C(=O)N2 (HELM PEPTIDE1{T.C.R.S.S.A.R.Y.C.R.S.P.Y.D.R.R.R.R.Y.C.R.R.I.T.D.A.C.V}$PEPTIDE1,PEPTIDE1,2:R3-27:R3|PEPTIDE1,PEPTIDE1,9:R3-20:R3$$$V2.0)	17 nM	5720 nM
